Like-named read-outs stand apart in the source and are kept apart here.
Experiments:
[1] = parameters: method as in unpublished; settings: ref unpublished, cited from earlier work
[2] = Food-effect two-period crossover trial: plasma pharmacokinetics after a single 200 mg oral dose of Ginsenoside CK Tablets; type: in vivo, human; settings: for Tmax: median (range)
Procedure: The food-effect trial was an open-label, randomized, two-period, two-treatment crossover trial, carried out from 15 January to 31 March 2015. Subjects (n = 24) were admitted to the clinical facility (Center of Clinical Pharmacology, the Third Xiangya Hospital, Central South University, Changsha, China) and randomized to receive a single 200 mg oral dose of Ginsenoside CK Tablets (4 × 50 mg tablets) either after a 10 h-fasting period or within 30 min after beginning the consumption of a recommended high-fat, high calorie breakfast (150 calories of protein, 250 calories of carbohydrates, 500 to 600 calories of fat; total calories approximately 800–1,000). Tablets were administered with 250 mL of water, to each subject, in each treatment period. Drinking was prohibited for 2 h before and after medication. Apart from this, the amount and time of drinking were not strictly controlled. Subjects had unified, standard meals 4 and 10 h after drug administration. The alternate treatment was conducted after a 14-day washout period.
Serial blood samples (5 mL) for PK assessment were collected from an indwelling catheter or by direct venipuncture prior to the administration (t = 0) and 0.25, 0.5, 1, 1.5, 2, 2.5, 3, 3.5, 4, 5, 6, 8, 12, 24, 36, 48, 72, and 96 h after the administration of ginsenoside CK. We inferred that these sampling times were sufficient for this trial, based on international guidelines (FDA, [2003]; CFDA, [2005]) and our previous results, since the sampling time is longer than at least three terminal half-lives of the drug. Additionally, the mean plasma concentrations of both CK and 20(S)-PPD at 96 h were considerably <1/20 of their Cmax even when the single oral dose at 800 mg (unpublished). Plasma was separated in blood collection tubes by centrifugation (3,000 rpm, 10 min) at 4°C within 1 h after sampling, transferred to labeled storage tubes and stored at −70°C pending workup and analysis.
Descriptive statistics of PK parameters were calculated using established non-compartmental methods, utilizing the WinNonLin version 6.1 software (Pharsight Corporation, USA). The PK parameters determined for each participant included apparent terminal half-life (t1/2), maximum plasma concentration (Cmax), time to Cmax (tmax), area under the plasma concentration-time curve from the time of administration up to the last time point with a measurable concentration post-dose (AUClast), AUC extrapolated to infinity (AUCinf), apparent volume of distribution (V/F), apparent plasma clearance (CL/F) after extravascular administration, mean residence time (MRTlast and MRTinf), and the cumulative excretion rate from urine. The t1/2 was estimated as (ln2)/K, where K represented the slope of the terminal phase of plasma concentration-time profile and was assessed with a weighting factor of 1, using least squares (log-linear regression of at least three data points). The Cmax and tmax were obtained from experimental observations. The values of AUC were calculated using conventional trapezoidal and log-trapezoidal methods and the extrapolated area (Rowland and Tozer, [1995]). CL/F and V/F were calculated as dose/AUCinf and (CL/F)/K, respectively. MRT was calculated as MRT = AUMC/AUC, where AUMC is the area under the first moment curve. The cumulative excretion rate was calculated as the amount of unchanged drug over a time interval in the urine divided by dose, and was expressed as a percentage.
All samples were detected using a LC-MS/MS (API 4000, ABI Company, USA) method, validated at the Institute of Clinical Pharmacology, Central South University (Changsha, China). Concentrations of CK and 20(S)-PPD were measured using a triple quadrupole tandem mass spectrometer in multiple reaction monitoring (MRM) mode, via a positive electrospray ionization source at m/z 621.4→ 160.8 for the CK and m/z 461.5→425.3 for 20(S)-PPD, with a dwell time of 200 ms. […]

[3] = both sexes, human, plasma, po, 200 mg, single oral 200 mg CK, FO, all subjects
[4] = female, human, plasma, po, 200 mg, single oral 200 mg CK, FO
[5] = female, human, plasma, po, 200 mg, single oral 200 mg CK, HF
[6] = geometric mean ratio FO vs. HF, n = 24
[7] = human, plasma, po, 200 mg, single oral 200 mg CK, FO, all subjects
[8] = human, plasma, po, 200 mg, single oral 200 mg CK, HF, all subjects
[9] = male, human, plasma, po, 200 mg, single oral 200 mg CK, FO
[10] = male, human, plasma, po, 200 mg, single oral 200 mg CK, HF
[11] = plasma, single oral 200 mg CK, FO, female
[12] = plasma, single oral 200 mg CK, FO, male
[13] = plasma, single oral 200 mg CK, HF, male
[14] = single oral 200 mg CK, FO, all subjects
[15] = single oral 200 mg CK, FO, female
[16] = single oral 200 mg CK, FO, male
[17] = single oral 200 mg CK, HF, all subjects
[18] = single oral 200 mg CK, HF, female
[19] = single oral 200 mg CK, HF, male

## CC(C)=CCCC(C)(OC1OC(CO)C(O)C(O)C1O)C1CCC2(C)C1C(O)CC1C3(C)CCC(O)C(C)(C)C3CCC12C [CK, 20-O-beta-D-glucopyranosyl-20(S)-protopanaxadiol]
[1]; dose range 100–400 mg
  Effects on vital signs, laboratory tests or 12-lead ECG: no significant effects
[1]; previous clinical trial
  Dose range over which exposure increased linearly: 100 to 400 mg
[1]; single oral dose at 800 mg
  Mean plasma concentration at 96 h as fraction of Cmax: < 1/20
[2]; 24 subjects
  Increase of Cmax, AUClast and AUCinf after HF meal compared to the FO condition: about 2 fold
[2]; FO vs. HF (Female), n = 12
  lgAUClast GMR (90%CI): 0.38 (0.28–0.53)
  lgCmax GMR (90%CI): 0.45 (0.33–0.62)
[2]; FO vs. HF (Male), n = 12
  lgAUClast GMR (90%CI): 0.49 (0.42–0.57)
  lgCmax GMR (90%CI): 0.55 (0.46–0.65)
[2]; M vs. F (FO), n = 12
  lgAUClast GMR (90%CI): 0.74 (0.54–1.02)
  lgCmax GMR (90%CI): 0.77 (0.57–1.04)
[2]; M vs. F (HF), n = 12
  lgAUClast GMR (90%CI): 0.59 (0.46–0.75)
  lgCmax GMR (90%CI): 0.64 (0.46–0.88)
[2]; after a meal, 20 of 24 subjects
  Subjects having measurable CK concentrations at 0.25 h after administration: 83%
[2]; both sexes, human, plasma, oral, 200 mg, FO and HF, male and female groups, read-out: mean t1/2, range over all treatments
  half-life: 24 to 28.4 h
[2]; [3]
  AUC(0-inf): 5.88 µg·h/mL
  AUC(0-t): 5.75 µg·h/mL
[2]; both sexes, human, plasma, po, 200 mg, single oral 200 mg CK, HF, all subjects
  AUC(0-t): 12.6 µg·h/mL
[2]; [4]
  Tmax: 3.8 h
  MRT inf: 14.5 ± 2.1 h
  MRT last: 11.6 ± 1 h
  AUC(0-inf): 6.9 µg·h/mL
  AUC(0-t): 6.75 µg·h/mL
[2]; female, human, plasma, po, 200 mg, plasma, single oral 200 mg CK, FO, female, read-out: Cmax
  Cmax: 0.921 ± 0.505 µg/mL
[2]; female, human, plasma, po, 200 mg, plasma, single oral 200 mg CK, FO, female, read-out: t1/2 (converted)
  half-life: 26.9 ± 5.4 h
[2]; female, human, plasma, po, 200 mg, plasma, single oral 200 mg CK, HF, female, read-out: Cmax
  Cmax: 1.84 µg/mL
[2]; female, human, plasma, po, 200 mg, plasma, single oral 200 mg CK, HF, female, read-out: t1/2 (converted)
  half-life: 25.6 ± 3.5 h
[2]; [5]
  MRT inf: 14.6 ± 1.5 h
  MRT last: 12.2 ± 1 h
  AUC(0-inf): 15.9 µg·h/mL
  AUC(0-t): 15.6 µg·h/mL
[2]; [6]
  lgAUClast GMR (90%CI): 0.43 (0.36–0.51)
  lgCmax GMR (90%CI): 0.50 (0.42–0.59)
[2]; [7]
  Tmax: 3.6 h
  MRT inf: 15.1 ± 4.3 h
  MRT last: 11.7 ± 1.2 h
[2]; human, plasma, po, 200 mg, plasma, single oral 200 mg CK, FO (fasting overnight), all subjects, read-out: t1/2 (converted)
  half-life: 27.7 ± 7.9 h
[2]; human, plasma, po, 200 mg, plasma, single oral 200 mg CK, FO, all subjects, read-out: Cmax
  Cmax: 0.797 ± 0.406 µg/mL
[2]; human, plasma, po, 200 mg, plasma, single oral 200 mg CK, HF (high-fat meal), all subjects, read-out: t1/2 (converted)
  half-life: 24.8 ± 3 h
[2]; human, plasma, po, 200 mg, plasma, single oral 200 mg CK, HF, all subjects, read-out: Cmax
  Cmax: 1.57 µg/mL
[2]; [8]
  MRT inf: 14.6 ± 1.7 h
  MRT last: 12.3 ± 1.2 h
[2]; [9]
  Tmax: 3.4 h
  MRT inf: 15.7 ± 5.7 h
  MRT last: 11.9 ± 1.3 h
  AUC(0-inf): 4.86 µg·h/mL
  AUC(0-t): 4.75 µg·h/mL
[2]; male, human, plasma, po, 200 mg, plasma, single oral 200 mg CK, FO, male, read-out: Cmax
  Cmax: 0.672 ± 0.236 µg/mL
[2]; male, human, plasma, po, 200 mg, plasma, single oral 200 mg CK, FO, male, read-out: t1/2 (converted)
  half-life: 28.4 ± 10 h
[2]; male, human, plasma, po, 200 mg, plasma, single oral 200 mg CK, HF, male, read-out: Cmax
  Cmax: 1.3 µg/mL
[2]; male, human, plasma, po, 200 mg, plasma, single oral 200 mg CK, HF, male, read-out: t1/2 (converted)
  half-life: 24 ± 2.4 h
[2]; [10]
  MRT inf: 14.5 ± 1.9 h
  MRT last: 12.4 ± 1.4 h
  AUC(0-inf): 9.81 µg·h/mL
  AUC(0-t): 9.63 µg·h/mL
[2]; [11]
  AUClast: 6,747.5 ± 3,408.7 h·ng·ml^−1
  Cmax: 0.9214 ± 0.5051 µg/mL
[2]; [12]
  AUCinf: 4,857.1 ± 1,723.2 h·ng·ml^−1
  AUClast: 4,749.9 ± 1,718.1 h·ng·ml^−1
  Cmax: 0.6722 ± 0.2358 µg/mL
[2]; plasma, single oral 200 mg CK, HF, female
  Cmax: 1,838.6 ± 404.4 ng·ml^−1
[2]; [13]
  AUClast: 9,633.1 ± 3,313.5 h·ng·ml^−1
  Cmax: 1,302.0 ± 632.9 ng·ml^−1
[2]; [14]
  CL/F: 43.4 ± 24.2 L/h
  V/F: 1,875 ± 1,899 L
[2]; [15]
  CL/F: 38.0 ± 21.8 L/h
  V/F: 1,427 ± 699 L
[2]; [16]
  CL/F: 48.8 ± 26.3 L/h
  V/F: 2,323 ± 2,572 L
[2]; [17]
  CL/F: 18.2 ± 9.8 L/h
  V/F: 652 ± 381 L
[2]; [18]
  CL/F: 12.8 ± 1.8 L/h
  V/F: 477 ± 109 L
[2]; [19]
  CL/F: 23.6 ± 11.6 L/h
  V/F: 828 ± 475 L
